# Measurements published in patent US9017654B2, “Preparation for vaccination, vaccination method and use of a vaccination preparation” (priority 2004, dated 2015).
# How the values were obtained:
# [1] = system: CFSE-marked syngenic spleen cells charged with SGP peptide (target cells for the CTLs); test: In vivo killer assay; parameters: species or system mice; settings: for specific reaction (FIG. 2, functionality of transcutaneously activated CTL): transcutaneous treatment, in vivo killer assay 6 days after immunisation
# Protocol: The specific cytotoxic functionality of the activated cells was determined by means of what is known as an in vivo killer assays 6 days after the last immunisation. For this purpose spleen cells marked with CFSE (5,6-carboxyfluorescein diacetate succinimidylester, Molecular Probes) from syngenic mice were used as target cells for the cytotoxic T cells (CTLs). Half of the cells were dyed with 3 μM CFSE, the other half with 0.3 μM CFSE. The cells marked with 3 μM CFSE were charged with the synthetic SGP peptide (10 μM peptide; 40×10^6 cells per ml ISC medium; 1 h; 37° C.) and these were then washed twice with medium and twice with PBS. The cells marked with 0.3 μM CFSE were only incubated in ISC medium and also washed. The cells were mixed in a ratio of 1:1 and the mice were injected in vivo with 15×10^6 cells in 300 μl PBS in each case. After 18 h the mice were killed and the spleen cells removed and flow cytometrically analysed. The CFSE-positive cells were counted in a FACS-Canto flow cytometer. The specific lysis resulted from the ratio of cell counts of the cells charged with peptide and strongly marked with CFSE and the cells that were not charged with peptide and were weakly marked with CFSE. Since the two cell populations had been used in a ratio of 1:1 the number of cells not charged with peptide tallies with the original number of cells charged with peptide. The specific lysis is then calculated as follows:
# [formula] [formula] CFSE Marking
# The spleen cells were prepared as described above. Following ACK lysis the cells were resuspended in 10 ml PBS, counted and adjusted to 2×10^7 cells per ml. The cell suspension was mixed with an adequate volume of a 6 μM or 0.6 μM CFSE solution (in PBS) and incubated for 4 min at 37° C. The reaction was then stopped following addition of double the volume of ISC medium supplemented with 10% foetal calf serum (FCS). The cells were washed twice with FCS-free medium and counted.
# To determine the functionality of the activated cells an in vivo killer assay was carried out 6 days after immunisation. For this purpose syngenic spleen cells marked with a high CFSE concentration were charged with peptide, mixed 1:1 with cells marked with a weak CFSE concentration and not charged with peptide and transferred i.v. into the mice. […] The fluorescence of the spleen cells in the FL-1 channel (CFSE) can be seen in each case. The lysis was calculated to the number of uncharged cells and is given in percent (B).
# To determine the functionality of the activated cells an in vivo killer assay was carried out 6 days after immunisation. […] The fluorescence of the spleen cells in the FL-1 channel (CFSE) can be seen in each case. The specific lysis was calculated to the number of uncharged cells and is given in percent.
# [2] = system: TCR transgenic cytotoxic T cells (CTL), CD45.1-positive CD8+; test: Analysis of the number of adoptively transferred transgenic cytotoxic T cells (CTL) in blood/spleen after immunisation (flow cytometry); format: in vivo, mice
# From the text: In this model a defined transgenic, which codes for a specific T cell receptor that recognises a specific MHC class I ligand ([…] (SEQ ID NO: 23); abbreviated to SGP) from the adenovirus type 5 in the context of MHC class I (H2-D^b), was introduced into mice. As already characterised by the inventors [“M. Hofmann, M. Radask, G. Rechtsteiner, K. Wiemann, M. Grander, U. Bien-Gräter, R. Offfringa, R.E.M. Toes, H.G. Rammensee, H. Schild; T cell avidity determines the level of CTL activation; Eur. J. Immunol. 2004: 34, 1798 to 1806”], the cytotoxic T cells (CTL) from these animals were only activated if they came into contact with this MHC class I ligand SGP in the context of H2-D^b. To be able to follow the activation of this CTL in the recipient animal the non-activated (naïve) CTL from transgenic donor mice was intravenously (i.v.) injected into syngenic recipient mice which differed in the allele of a lymphocyte marker (CD45.1 on transgenic cells or CD45.2 on cells of the recipient mice). […]
# To measure the proliferation of the adoptively transferred cells blood was taken from the tail vein of the mice 4 days after the last immunisation and the blood sample was analysed flow cytometrically. […] For flow cytometric analysis of the cells they were stained with fluorescence-marked antibodies (anti-CD8 APC-Cy7-conjugated, anti-CD45.1 PE-conjugated (commercially available from Becton-Dickinson Pharmingen, Hamburg)) and, more precisely, for 30 min in 50 μl FACS buffer on ice in 96-well circular bottomed plates. The cells were washed twice with FACS buffer and analysed in a FACS-canto flow cytometer (Becton-Dickinson Pharmingen, Hamburg). […]
# The transgenic CD8^+ cell content in the total population of CD8^+ cells was flow cytometrically determined in the blood or spleen. […] The fluorescence in the FL-2 channel (PE) of the CD8^+ lymphocytes can be seen in each case. […] In all mice the transgenic CD8^+ cells content prior to immunisation and 4 days after immunisation was determined in the spleen (A).
Molecule,"specific reaction (FIG. 2, functionality of transcutaneously activated CTL) [1]","% transgenic CD8+ in total CD8+, Day 4 Blood ([2]; Group 3: 50 μg peptide (i.d.) alone, day 4, blood) [%]","% transgenic CD8+ in total CD8+, Day 6 Spleen ([2]; Group 3: 50 μg peptide (i.d.) alone, day 6, spleen) [%]","increase in transgenic cells ([2]; peptide applied on its own (without additives, adjuvants))","Specific lysis (%) ([1]; Group 3: 50 μg peptide (i.d.) alone, 6 days after immunisation)","functional activation of the CTL ([1]; immunisation with peptide only (group Mouse 3), FIG. 1B)"
"CC(C)Cn1cnc2c(N)nc3ccccc3c21 [imiquimod, 1-(2-methylpropyl-)1H-imidazo[4,5-c]quinolin-4-amine, reference compound]",did not exhibit a specific reaction,–,–,–,–,–
"SGPSNTPPEI (Adenovirus type 5) [peptide, MHC class I ligand (H2-Db) from the E1A protein of adenovirus type 5, synthetically produced]",did not exhibit a specific reaction,4.38,2.04,only a marginal increase,3.51,does not lead to functional activation
